Assays:
[1] = target: 5-HT1D (Rattus norvegicus, UniProt P28565); conditions: 10 μM viloxazine; [3H]serotonin 1 nM; 60 min/22° C.
Description: (§1) Briefly, recombinant 5-HT1B OR 5-HT7 receptors were expressed in a CHO cell line. The receptors were then saturated with a tritiated receptor-specific ligand at concentrations known to be saturating.

[2] = target: 5-HT3 (h) (Homo sapiens, UniProt P46098); conditions: 10 μM viloxazine; [3H]BRL 43694 0.5 nM; 120 min/22° C.
Description: as §1

[3] = target: 5-HT4e (h) (Homo sapiens, UniProt Q13639); conditions: 10 μM viloxazine; [3H]GR 113808 0.3 nM; 60 min/37° C.
5-HT4e (h), sequence (Q13639 1-378 isoform Q13639-5): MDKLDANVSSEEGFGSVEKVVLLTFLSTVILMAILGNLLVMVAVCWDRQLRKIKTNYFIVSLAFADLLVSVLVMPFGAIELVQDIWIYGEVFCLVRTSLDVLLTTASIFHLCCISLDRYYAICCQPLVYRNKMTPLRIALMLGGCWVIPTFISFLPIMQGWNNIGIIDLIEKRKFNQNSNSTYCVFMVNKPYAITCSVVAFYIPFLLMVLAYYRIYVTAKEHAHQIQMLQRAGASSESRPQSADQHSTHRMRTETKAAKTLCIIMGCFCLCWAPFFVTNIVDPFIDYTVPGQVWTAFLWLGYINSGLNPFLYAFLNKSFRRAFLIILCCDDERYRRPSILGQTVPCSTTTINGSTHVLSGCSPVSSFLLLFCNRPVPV
Description: as §1

[4] = target: 5-HT5A (h) (Homo sapiens, UniProt P47898); conditions: 10 μM viloxazine; [3H]LSD 1 nM; 60 min/37° C.
5-HT5A (h), sequence (P47898 whole entry): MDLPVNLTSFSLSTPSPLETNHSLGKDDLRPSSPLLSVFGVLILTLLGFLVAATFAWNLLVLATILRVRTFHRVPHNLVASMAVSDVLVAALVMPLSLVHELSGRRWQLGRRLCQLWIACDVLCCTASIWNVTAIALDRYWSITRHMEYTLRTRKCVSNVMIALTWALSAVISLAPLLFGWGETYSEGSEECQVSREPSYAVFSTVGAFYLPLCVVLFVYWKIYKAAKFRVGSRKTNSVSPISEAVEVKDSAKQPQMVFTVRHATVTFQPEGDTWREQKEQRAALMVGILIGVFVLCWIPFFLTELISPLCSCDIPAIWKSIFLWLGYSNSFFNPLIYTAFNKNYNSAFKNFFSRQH
Description: as §1

[5] = target: 5-HT6 (h) (Homo sapiens, UniProt P50406); conditions: 10 μM viloxazine; [3H]LSD 2 nM; 120 min/37° C.
5-HT6 (h), sequence (P50406 whole entry): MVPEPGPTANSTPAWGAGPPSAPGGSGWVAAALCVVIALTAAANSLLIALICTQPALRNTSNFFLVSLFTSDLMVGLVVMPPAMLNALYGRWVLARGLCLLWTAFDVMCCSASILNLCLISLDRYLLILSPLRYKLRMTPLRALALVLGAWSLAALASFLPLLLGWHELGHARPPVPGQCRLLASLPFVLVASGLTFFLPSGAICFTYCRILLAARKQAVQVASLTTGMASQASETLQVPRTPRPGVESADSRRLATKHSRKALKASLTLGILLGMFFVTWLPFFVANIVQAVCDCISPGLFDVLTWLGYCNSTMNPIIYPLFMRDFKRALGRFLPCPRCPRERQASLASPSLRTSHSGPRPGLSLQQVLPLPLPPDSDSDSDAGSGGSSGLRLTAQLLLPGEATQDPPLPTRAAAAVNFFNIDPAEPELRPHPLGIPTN
Description: as §1

[6] = target: 5-HT1B (h) (Homo sapiens, UniProt P28222)
5-HT1B (h), sequence (P28222 whole entry): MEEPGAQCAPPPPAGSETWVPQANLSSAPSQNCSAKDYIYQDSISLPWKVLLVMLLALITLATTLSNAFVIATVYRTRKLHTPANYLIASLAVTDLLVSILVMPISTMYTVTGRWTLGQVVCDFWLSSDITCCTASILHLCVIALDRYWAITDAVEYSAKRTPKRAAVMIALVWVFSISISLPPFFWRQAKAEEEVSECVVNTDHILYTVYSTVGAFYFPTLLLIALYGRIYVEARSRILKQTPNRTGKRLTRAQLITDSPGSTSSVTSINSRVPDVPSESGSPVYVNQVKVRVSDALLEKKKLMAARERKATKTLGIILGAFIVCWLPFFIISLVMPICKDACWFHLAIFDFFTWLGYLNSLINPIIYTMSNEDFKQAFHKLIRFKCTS
Experimental: The apparent dissociation constants for antagonists Kb were calculated using the modified Cheng Prusoff equation.

[7] = target: noradrenergic reuptake transporters (Homo sapiens, UniProt P23975); conditions: Tatsumi et al 1997; quantity type not given; cited from earlier work
noradrenergic reuptake transporters, sequence (P23975 whole entry): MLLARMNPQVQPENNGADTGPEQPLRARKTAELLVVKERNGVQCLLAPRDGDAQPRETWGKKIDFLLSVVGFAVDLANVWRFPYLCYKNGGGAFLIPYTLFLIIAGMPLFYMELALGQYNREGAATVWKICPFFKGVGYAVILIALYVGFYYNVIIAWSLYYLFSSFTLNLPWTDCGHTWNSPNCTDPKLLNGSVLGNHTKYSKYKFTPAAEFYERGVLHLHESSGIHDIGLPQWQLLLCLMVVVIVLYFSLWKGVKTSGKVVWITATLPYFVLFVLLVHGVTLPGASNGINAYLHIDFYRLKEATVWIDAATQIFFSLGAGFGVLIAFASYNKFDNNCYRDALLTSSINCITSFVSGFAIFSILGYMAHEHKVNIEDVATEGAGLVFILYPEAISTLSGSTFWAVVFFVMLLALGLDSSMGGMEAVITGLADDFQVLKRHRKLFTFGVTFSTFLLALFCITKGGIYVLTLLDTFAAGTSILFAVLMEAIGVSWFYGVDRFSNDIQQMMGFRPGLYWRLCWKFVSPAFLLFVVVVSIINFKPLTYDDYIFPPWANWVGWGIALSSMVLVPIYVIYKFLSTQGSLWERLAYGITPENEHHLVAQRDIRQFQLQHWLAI

5-HT3 (h), sequence (P46098 24-478): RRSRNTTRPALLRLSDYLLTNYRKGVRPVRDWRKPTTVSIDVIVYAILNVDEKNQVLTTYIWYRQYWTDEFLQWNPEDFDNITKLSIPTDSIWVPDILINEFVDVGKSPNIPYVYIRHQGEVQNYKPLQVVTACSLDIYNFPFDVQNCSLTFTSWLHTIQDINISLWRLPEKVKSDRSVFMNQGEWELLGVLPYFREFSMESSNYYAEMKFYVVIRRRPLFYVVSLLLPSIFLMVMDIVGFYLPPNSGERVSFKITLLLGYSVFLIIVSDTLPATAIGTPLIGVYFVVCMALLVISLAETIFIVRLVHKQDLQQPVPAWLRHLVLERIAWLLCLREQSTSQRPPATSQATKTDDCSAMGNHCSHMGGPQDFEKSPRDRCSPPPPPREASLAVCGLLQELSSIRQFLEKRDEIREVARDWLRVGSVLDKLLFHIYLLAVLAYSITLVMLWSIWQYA
5-HT1D, sequence (P28565 whole entry): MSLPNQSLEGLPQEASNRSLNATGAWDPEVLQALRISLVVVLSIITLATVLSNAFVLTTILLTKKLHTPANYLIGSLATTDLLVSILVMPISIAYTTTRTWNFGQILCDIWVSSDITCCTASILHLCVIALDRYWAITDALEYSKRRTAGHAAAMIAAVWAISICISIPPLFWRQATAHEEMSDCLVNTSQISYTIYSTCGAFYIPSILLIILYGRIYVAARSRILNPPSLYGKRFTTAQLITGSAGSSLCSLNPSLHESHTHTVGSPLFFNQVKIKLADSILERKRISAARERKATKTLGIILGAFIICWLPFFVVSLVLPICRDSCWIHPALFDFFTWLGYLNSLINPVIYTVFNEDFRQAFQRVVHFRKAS

Viloxazine
% Inhib. [1]: 18%
% Inhib. [2]: 18%
% Inhib. [3]: 16%
% Inhib. [4]: 15%
% Inhib. [5]: 6%
antagonist activity (in words) [6]: specific antagonist activity
inhibition of noradrenergic reuptake transporters [7]: 155 nM
